Experimental data reported in PubChem BioAssay AID330 (DTP/NCI, 2004).
Where “and” joins values, the source holds several entries; their conditions need not be identical. Identical values can stand only once. Toxic doses and inconclusive results are not listed.

System: P388 leukemia ip, CD2F1 mice, survival T/C
Assay: NCI In Vivo Anticancer Drug Screen. Data for tumor model P388 Leukemia (intraperitoneal) in CD2F1 (CDF1) mice
Settings: endpoint: median survival time, higher = longer survival
Summary of the method: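 Mice carrying the transplanted tumor received test compound or vehicle. Survival was recorded in each group, and the value is the treated-group measurement divided by that of the vehicle-treated control group.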

[1] = dose: 50.0 mg/kg/injection, schedule: Q01DX009 (ip), vehicle: Klucel (hydroxypropylcellulose) (HPC)
[2] = dose: 100.0 mg/kg/injection, schedule: Q01DX009 (ip), vehicle: Klucel (hydroxypropylcellulose) (HPC)
[3] = dose: 200.0 mg/kg/injection, schedule: Q01DX009 (ip), vehicle: Klucel (hydroxypropylcellulose) (HPC)
[4] = dose: 50.0 mg/kg/injection, schedule: Q01DX009 (ip), vehicle: saline with Tween-80
[5] = dose: 100.0 mg/kg/injection, schedule: Q01DX009 (ip), vehicle: saline with Tween-80
[6] = dose: 200.0 mg/kg/injection, schedule: Q01DX009 (ip), vehicle: saline with Tween-80
[7] = dose: 25.0 mg/kg/injection, schedule: Q01DX009 (ip), vehicle: saline with Tween-80
[8] = dose: 50.0 mg/kg/injection, schedule: Q01DX005 (ip), vehicle: Klucel (hydroxypropylcellulose) (HPC)
[9] = dose: 100.0 mg/kg/injection, schedule: Q01DX005 (ip), vehicle: Klucel (hydroxypropylcellulose) (HPC)
[10] = dose: 200.0 mg/kg/injection, schedule: Q01DX005 (ip), vehicle: Klucel (hydroxypropylcellulose) (HPC)
[11] = dose: 50.0 mg/kg/injection, schedule: Q01DX009 (ip), vehicle: saline
[12] = dose: 100.0 mg/kg/injection, schedule: Q01DX009 (ip), vehicle: saline
[13] = dose: 200.0 mg/kg/injection, schedule: Q01DX009 (ip), vehicle: saline
[14] = dose: 60.0 mg/kg/injection, schedule: Q01DX005 (ip), vehicle: saline with Tween-80
[15] = dose: 120.0 mg/kg/injection, schedule: Q01DX005 (ip), vehicle: saline with Tween-80
[16] = dose: 240.0 mg/kg/injection, schedule: Q01DX005 (ip), vehicle: saline with Tween-80
[17] = dose: 50.0 mg/kg/injection, schedule: Q01DX005 (ip), vehicle: saline with Tween-80
[18] = dose: 100.0 mg/kg/injection, schedule: Q01DX005 (ip), vehicle: saline with Tween-80
[19] = dose: 200.0 mg/kg/injection, schedule: Q01DX005 (ip), vehicle: saline with Tween-80

NC(CSC(c1ccccc1)(c1ccccc1)c1ccc(CBr)cc1)C(=O)O (centres undefined)
T/C (dose: 12.5 mg/kg/injection, schedule: Q01DX009 (ip), vehicle: Klucel (hydroxypropylcellulose) (HPC)): 86 % of control | T/C (dose: 12.5 mg/kg/injection, schedule: Q01DX009 (ip), vehicle: other): 120 % of control | T/C (dose: 25.0 mg/kg/injection, schedule: Q01DX009 (ip), vehicle: Klucel (hydroxypropylcellulose) (HPC)): 90 % of control | T/C [1]: 95 % of control | T/C [2]: 88 % of control | T/C (dose: 100.0 mg/kg/injection, schedule: Q01DX009 (ip), vehicle: other): 151 % of control and 159 % of control | T/C [3]: 90 % of control | T/C (dose: 200.0 mg/kg/injection, schedule: Q01DX009 (ip), vehicle: other): 162 % of control and 178 % of control | T/C (dose: 400.0 mg/kg/injection, schedule: Q01DX009 (ip), vehicle: Klucel (hydroxypropylcellulose) (HPC)): 94 % of control | T/C (dose: 400.0 mg/kg/injection, schedule: Q01DX009 (ip), vehicle: other): 182 % of control

CSC(=S)N/N=C(C)\C=N/Nc1ccccc1
T/C (dose: 100.0 mg/kg/injection, schedule: Q04DX002 (ip), vehicle: saline): 101 % of control | T/C (dose: 200.0 mg/kg/injection, schedule: Q04DX002 (ip), vehicle: saline): 106 % of control | T/C (dose: 400.0 mg/kg/injection, schedule: Q04DX002 (ip), vehicle: saline): 96 % of control

CN1c2ccccc2C(C)(C)C12Cc1c(N)ncc(C#N)c1N2 (centres undefined)
T/C [4]: 91 % of control | T/C [5]: 88 % of control | T/C [6]: 93 % of control

Cc1ccc(S(=O)(=O)OC2CCN(C)CC2)cc1
T/C (dose: 25.0 mg/kg/injection, schedule: Q04DX003 (ip), vehicle: saline): 113 % of control | T/C (dose: 50.0 mg/kg/injection, schedule: Q04DX003 (ip), vehicle: saline): 102 % of control | T/C (dose: 100.0 mg/kg/injection, schedule: Q04DX003 (ip), vehicle: saline): 99 % of control | T/C (dose: 200.0 mg/kg/injection, schedule: Q04DX003 (ip), vehicle: saline): 104 % of control

O=C1c2ccccc2-c2cccc3ccnc1c23
T/C (dose: 8.0 mg/kg/injection, schedule: Q01DX009 (ip), vehicle: Klucel (hydroxypropylcellulose) (HPC)): 103 % of control | T/C (dose: 16.0 mg/kg/injection, schedule: Q01DX009 (ip), vehicle: Klucel (hydroxypropylcellulose) (HPC)): 101 % of control | T/C (dose: 32.0 mg/kg/injection, schedule: Q01DX009 (ip), vehicle: Klucel (hydroxypropylcellulose) (HPC)): 103 % of control | T/C (dose: 64.0 mg/kg/injection, schedule: Q01DX009 (ip), vehicle: Klucel (hydroxypropylcellulose) (HPC)): 100 % of control

CCOC1N(c2ccc(Cl)cc2)CN(CCCN(C)C)CC1(C)C (centres undefined)
T/C [4]: 104 % of control | T/C [5]: 104 % of control | T/C [6]: 117 % of control

CC1=CP(=O)(c2ccccc2)CC1 (centres undefined) (tested in a mixture with another compound)
T/C (dose: 60.0 mg/kg/injection, schedule: Q01DX005 (ip), vehicle: saline): 93 % of control | T/C (dose: 120.0 mg/kg/injection, schedule: Q01DX005 (ip), vehicle: saline): 99 % of control | T/C (dose: 240.0 mg/kg/injection, schedule: Q01DX005 (ip), vehicle: saline): 102 % of control

CC(C)OC(=O)Nc1ccccc1Cl
T/C (dose: 12.5 mg/kg/injection, schedule: Q01DX009 (ip), vehicle: saline with Tween-80): 104 % of control | T/C [7]: 100 % of control | T/C [4]: 109 % of control

CC(=O)Nc1cc(Cl)cc2c1-c1ccc(Cl)cc1C2N(C)C (centres undefined)
T/C [8]: 96 % of control | T/C [9]: 100 % of control | T/C [10]: 87 % of control

C#CCOc1ccccc1C(=O)NNc1ccc([N+](=O)[O-])cc1[N+](=O)[O-]
T/C [4]: 97 % of control | T/C [5]: 87 % of control

O=C1C=C(Nc2ccccc2N=C2C(N3C4=CCc5ccccc5C4=Nc4ccccc43)=CC(=O)c3ccccc32)C(=O)c2ccccc21
T/C [11]: 89 % of control | T/C [12]: 91 % of control | T/C [13]: 100 % of control

Nc1cc2oc(=O)[nH]c2cc1Cl
T/C [8]: 90 % of control | T/C [9]: 92 % of control | T/C [10]: 103 % of control

CC(C)c1ccc(/C=C(/NC(=O)c2ccccc2)c2nc3ccccc3s2)cc1
T/C [14]: 104 % of control | T/C [15]: 111 % of control | T/C [16]: 118 % of control

COc1cc2c(OC)cc1CCC1=CC(=O)C=C(CC2)C1=O
T/C [17]: 99 % of control | T/C [18]: 103 % of control | T/C [19]: 92 % of control

[N-]=[N+]=N/C=C1\CCOC1=O
T/C (dose: 7.5 mg/kg/injection, schedule: Q01DX005 (ip), vehicle: saline with Tween-80): 101 % of control | T/C (dose: 15.0 mg/kg/injection, schedule: Q01DX005 (ip), vehicle: saline with Tween-80): 100 % of control | T/C (dose: 30.0 mg/kg/injection, schedule: Q01DX005 (ip), vehicle: saline with Tween-80): 99 % of control and 100 % of control | T/C [16]: 99 % of control

O=C(O)CSc1nc2ccc(N3C(=O)C4C5C=CC(C5)C4C3=O)cc2s1 (centres undefined)
T/C [1]: 90 % of control | T/C [2]: 105 % of control | T/C [3]: 99 % of control

CCCOc1cc2c(cc1C(C)c1ccc(OC)cc1)OCO2 (centres undefined)
T/C (dose: 25.0 mg/kg/injection, schedule: Q01DX005 (ip), vehicle: distilled water + alcohol): 106 % of control | T/C (dose: 400.0 mg/kg/injection, schedule: Q01DX005 (ip), vehicle: distilled water + alcohol): 112 % of control and 114 % of control

Oc1cc2c(cc1C(c1ccc3c(c1)OCO3)N1CCOCC1)OCO2 (centres undefined)
T/C [14]: 118 % of control | T/C [15]: 106 % of control | T/C [16]: 111 % of control

Cc1cc2nc3ccc(O)cc3[n+](C)c2cc1N
T/C (dose: 12.5 mg/kg/injection, schedule: Q01DX009 (ip), vehicle: saline): 98 % of control and 103 % of control | T/C (dose: 25.0 mg/kg/injection, schedule: Q01DX009 (ip), vehicle: saline): 100 % of control and 106 % of control | T/C [11]: 96 % of control and 97 % of control | T/C [12]: 99 % of control and 96 % of control

O=C(c1ccc(Cl)cc1)c1cnc2nc(-c3ccccc3)c(-c3ccccc3)nn12
T/C (dose: 6.25 mg/kg/injection, schedule: Q01DX005 (ip), vehicle: saline with Tween-80): 97 % of control | T/C (dose: 12.5 mg/kg/injection, schedule: Q01DX005 (ip), vehicle: saline with Tween-80): 98 % of control | T/C (dose: 25.0 mg/kg/injection, schedule: Q01DX005 (ip), vehicle: saline with Tween-80): 97 % of control | T/C [17]: 103 % of control | T/C [18]: 113 % of control | T/C [19]: 115 % of control

O=c1[nH]c(=O)c2[nH]c(N=Nc3ccc(S(=O)(=O)O)cc3)nc2[nH]1
T/C [8]: 95 % of control | T/C [9]: 99 % of control | T/C [10]: 100 % of control

CC(C)CCCC(C)Cc1cc(CC(C)CCCC(C)C)n(C)n1 (centres undefined)
T/C (dose: 25.0 mg/kg/injection, schedule: Q01DX005 (ip), vehicle: Klucel (hydroxypropylcellulose) (HPC)): 108 % of control and 109 % of control and 97 % of control | T/C [8]: 102 % of control and 109 % of control and 96 % of control | T/C [9]: 101 % of control and 105 % of control and 111 % of control | T/C [10]: 108 % of control and 121 % of control and 96 % of control | T/C (dose: 400.0 mg/kg/injection, schedule: Q01DX005 (ip), vehicle: Klucel (hydroxypropylcellulose) (HPC)): 100 % of control

C=CC1(O)CCCCC1
T/C [11]: 97 % of control | T/C [12]: 100 % of control | T/C [13]: 107 % of control

CCOC(=O)c1cn(C)c2c1C(=O)C(C(=O)OCC)CCN2C(=O)OCC (centres undefined)
T/C [4]: 99 % of control | T/C [5]: 105 % of control | T/C [6]: 107 % of control

O=[N+]([O-])c1ccc(N2c3ccccc3SC23CCCC3)c([N+](=O)[O-])c1
T/C [17]: 100 % of control | T/C [18]: 100 % of control | T/C [19]: 99 % of control

CC1CN1C(=O)Nc1cccc(Cl)c1 (centres undefined)
T/C [11]: 100 % of control | T/C [12]: 102 % of control

C/C(=N/NC(N)=S)c1cn[nH]c1C
T/C (dose: 15.0 mg/kg/injection, schedule: Q01DX005 (ip), vehicle: Klucel (hydroxypropylcellulose) (HPC)): 102 % of control | T/C (dose: 30.0 mg/kg/injection, schedule: Q01DX005 (ip), vehicle: Klucel (hydroxypropylcellulose) (HPC)): 102 % of control | T/C (dose: 60.0 mg/kg/injection, schedule: Q01DX005 (ip), vehicle: Klucel (hydroxypropylcellulose) (HPC)): 114 % of control

CCOC(=O)c1ccc(NC(=O)Nc2ncccc2C)cc1
T/C (dose: 0.78 mg/kg/injection, schedule: Q01DX009 (ip), vehicle: saline with Tween-80): 98 % of control | T/C (dose: 1.56 mg/kg/injection, schedule: Q01DX009 (ip), vehicle: saline with Tween-80): 103 % of control | T/C (dose: 6.25 mg/kg/injection, schedule: Q01DX009 (ip), vehicle: saline with Tween-80): 92 % of control | T/C [7]: 90 % of control | T/C [6]: 89 % of control
